Reference: patent US11186588B2 (AYUMI PHARMACEUTICAL CORPORATION, priority 2017, dated 2021)

Tests used:
[1] = target: Recombinant BRD4 (44-168) protein (Homo sapiens (Human), UniProt O60885); assay: BRD4-H4KAc4 binding assay (amplified luminescence proximity homogeneous assay, AlphaScreen); details: 10 uM
Description: In order to evaluate BRD4 inhibitory activity of the present compounds, BRD4-H4KAc4 binding assay was carried out by an amplified luminescence proximity homogeneous assay. The specific method is described below.
H4KAc4 peptide (available from Toray Research Center, Inc., sequence SGRGK(Ac)GGK(Ac)GLGK(Ac)GGAK(Ac)RHR-K(Biotin)-NH2) was dissolved in 1×Assay buffer to prepare 1 mM H4KAc4 peptide stock solution.
N-terminal His tag/C-terminal FLAG tag-fused type Recombinant BRD4 (44-168) protein (available from Active Motif, Cat No. 31380) was diluted with 1×Assay buffer to 1,250-fold to prepare 250 nM BRD4 solution.
1% DMSO solution (control) and 2 μL of each compound solution in each concentration were added to each well of AlphaPlate-384 (from PerkinElmer, Cat No. 6008350). Next, 2 μL of 250 nM BRD4 solution was added to each well of AlphaPlate-384. Further, 2 μL of 250 nM H4KAc4 peptide solution was added to each well of AlphaPlate-384. After addition of the 250 nM H4KAc4 peptide solution, the mixture was allowed to stand at room temperature under light shielding for 60 minutes, and 4 μL of AlphaScreen beads were added to each well of AlphaPlate-384. After addition of the AlphaScreen beads, the mixture was allowed to stand at room temperature under light shielding for 60 minutes, emission at 520-620 nm upon excitation at 680 nm was detected by EnVision multilabel counter (from PerkinElmer), and binding of BRD4 and H4KAc4 was detected. Incidentally, the evaluation of each compound was carried out in duplicate (2 well per 1 compound).
(§1) The BRD4 inhibition rate (%) was calculated by the following equation using Microsoft EXCEL 2010. BRD4 inhibition rate (%)=100−{(luminescence intensity average value of each compound added well)−(average value of luminescence intensity of blank well))/(average value of luminescence intensity of control well)−(average value of luminescence intensity of blank well)}×100

NF-κB = NF-κB reporter gene assay (TNF-α stimulated A549/NF-κB-luc cells); format: cell-based; details: Homo sapiens, TNF-α stimulation
Description: In order to evaluate NF-κB inhibitory activity of the present compounds, NF-κB reporter gene assay was carried out. The specific method is described below.
Gene recombinant human TNF-α (available from R&D systems, Cat No. 210-TA) was dissolved in D-PBS(−) (available from Wako Pure Chemical Industries, Ltd., Cat No. 293-72601) to prepare 100 μg/mL of TNF-α solution stock solution. 100 μg/mL of the TNF-α solution stock solution was diluted with the culture medium to prepare 10 ng/mL of TNF-α solution.
A549/NF-κB-luc cells (available from Panomics, Cat No. LR0051) were prepared at 375,000 cells/mL in the culture medium. The 375,000 cells/mL A549/NF-κB-luc cell suspension was seeded at 80 μL each on a white 96-well plate (available from Greiner, Cat No. 655073). One hour after seeding the cells, 10 μL of 2% DMSO solution (control) and each compound solution in each concentration were added to each well of the 96-well plate. One hour after the addition of each compound solution, 10 ng/mL of the TNF-α solution (10 μL) was added to each well of the 96-well plate. Three hours after the addition of 10 ng/mL of the TNF-α solution, 100 μL of Steady-Glo reagent (available from Promega, Cat No. E2510) was added to each well of the 96-well plate. After 30 to 90 minutes of the addition of the Steady-Glo reagent, the luminescence intensity of each well was detected by EnVision multilabel counter (available from PerkinElmer).
as §1, with “NF-κB” for “The BRD4”, “NF-κB” for “BRD4”, “well)}×100 In addition, IC50 values were calculated from the calculated NF-κB inhibition rate (%) using curve fitting software XLfit (available from IDBS).” for “well)}×100”

Row | inhibition at 10 µM [1] [%] | IC50 (NF-κB) [µM] | SMILES
1 | 100 | 0.0303 | Cc1sc2c(c1C)C(c1ccc(Cl)cc1)=NN(Cc1cccc(F)n1)c1nnc(C)n1-2 [Example 21, 4-(4-chlorophenyl)-6-((6-fluoropyridin-2-yl)methyl)-2,3,9-trimethyl-6H-thieno[2,3-e][1,2,4]triazolo[3,4-c][1,2,4]triazepine]
2 | 100 | 0.942 | CC(=O)Nc1cc(CN2N=C(c3ccc(Cl)cc3)c3c(sc(C)c3C)-n3c(C)nnc32)ccn1 [Example 56, N-(4-((4-(4-chlorophenyl)-2,3,9-trimethyl-6H-thieno[2,3-e][1,2,4]triazolo[3,4-c][1,2,4]triazepin-6-yl)methyl)pyridin-2-yl)acetamide]
3 | 100 | 1.93 | COc1cccc(C2=NN(Cc3cccnc3)c3nnc(C)n3-c3sc(C)c(C)c32)c1 [Example 75, 4-(3-methoxyphenyl)-2,3,9-trimethyl-6-(pyridin-3-ylmethyl)-6H-thieno[2,3-e][1,2,4]triazolo[3,4-c][1,2,4]triazepine]
4 | 99.3 | 9.85 | Cc1sc2c(c1C)C(c1ccc(Cl)cc1)=NN(CCc1c[nH]c3ccccc13)c1nnc(C)n1-2 [Example 44, 6-(2-(1H-indol-3-yl)ethyl)-4-(4-chlorophenyl)-2,3,9-trimethyl-6H-thieno[2,3-e][1,2,4]triazolo[3,4-c][1,2,4]triazepine]
5 | 100 | 0.192 | Cc1sc2c(c1C)C(c1ccc(Cl)cc1)=NN(Cc1ccccc1Cl)c1nnc(C)n1-2 [Example 10, 6-(2-chlorobenzyl)-4-(4-chlorophenyl)-2,3,9-trimethyl-6H-thieno[2,3-e][1,2,4]triazolo[3,4-c][1,2,4]triazepine]
6 | 100 | 0.135 | CC(=O)Nc1ncccc1CN1N=C(c2ccc(Cl)cc2)c2c(sc(C)c2C)-n2c(C)nnc21 [Example 82, N-(3-((4-(4-chlorophenyl)-2,3,9-trimethyl-6H-thieno[2,3-e][1,2,4]triazolo[3,4-c][1,2,4]triazepin-6-yl)methyl)pyridin-2-yl)acetamide]
7 |  | 2.32 | Cc1sc2c(c1CO)C(c1ccc(N)cc1)=NN(Cc1cccnc1)c1nnc(C)n1-2 [Example 107, (4-(4-aminophenyl)-2,9-dimethyl-6-(pyridin-3-ylmethyl)-6H-thieno[2,3-e][1,2,4]triazolo[3,4-c][1,2,4]triazepin-3-yl)methanol]
8 | 101 | 3.1 | Cc1sc2c(c1C)C(c1ccccc1)=NNc1nnc(C)n1-2 [Example 27, 2,3,9-trimethyl-4-phenyl-6H-thieno[2,3-e][1,2,4]triazolo[3,4-c][1,2,4]triazepine]
9 | 100 | 5.24 | Cc1nnc2n1-c1sccc1C(c1ccc(Cl)cc1)=NN2Cc1ccncc1 [Example 63, 4-(4-chlorophenyl)-9-methyl-6-(pyridin-4-ylmethyl)-6H-thieno[2,3-e][1,2,4]triazolo[3,4-c][1,2,4]triazepine]
10 | 100 | 0.0176 | Cc1sc2c(c1C)C(c1ccc(Cl)cc1)=NN(Cc1cccc(F)c1)c1nnc(C)n1-2 [Example 9, 4-(4-chlorophenyl)-6-(3-fluorobenzyl)-2,3,9-trimethyl-6H-thieno[2,3-e][1,2,4]triazolo[3,4-c][1,2,4]triazepine]
11 | 100 | 5.23 | Cc1sc2c(c1C)C(c1ccc(Cl)cc1)=NN(Cc1cccc(N)c1)c1nnc(C)n1-2 [Example 52, 3-((4-(4-chlorophenyl)-2,3,9-trimethyl-6H-thieno[2,3-e][1,2,4]triazolo[3,4-c][1,2,4]triazepin-6-yl)methyl)aniline]
12 | 100 | 1.39 | CCOc1ncccc1CN1N=C(c2ccc(Cl)cc2)c2c(sc(C)c2C)-n2c(C)nnc21 [Example 87, 4-(4-chlorophenyl)-6-((2-ethoxypyridin-3-yl)methyl)-2,3,9-trimethyl-6H-thieno[2,3-e][1,2,4]triazolo[3,4-c][1,2,4]triazepine]
13 | 100 | 0.297 | Cc1sc2c(c1C)C(c1ccccc1)=NN(Cc1cccnc1F)c1nnc(C)n1-2 [Example 90, 6-((2-fluoropyridin-3-yl)methyl)-2,3,9-trimethyl-4-phenyl-6H-thieno[2,3-e][1,2,4]triazolo[3,4-c][1,2,4]triazepine]
14 | 100 | 1.11 | Cc1sc2c(c1C)C(c1ccc(Cl)cc1)=NN(Cc1cccnc1[N+](=O)[O-])c1nnc(C)n1-2 [Example 80, 4-(4-chlorophenyl)-2,3,9-trimethyl-6-((2-nitropyridin-3-yl)methyl)-6H-thieno[2,3-e][1,2,4]triazolo[3,4-c][1,2,4]triazepine]
15 | 100 | 0.0321 | Cc1cccc(CN2N=C(c3ccc(Cl)cc3)c3c(sc(C)c3C)-n3c(C)nnc32)c1 [Example 12, 4-(4-chlorophenyl)-2,3,9-trimethyl-6-(3-methylbenzyl)-6H-thieno[2,3-e][1,2,4]triazolo[3,4-c][1,2,4]triazepine]
16 | 100 | 0.0953 | Cc1sc2c(c1C)C(c1ccc(Cl)cc1)=NN(Cc1cccnc1CO)c1nnc(C)n1-2 [Example 86, (3-((4-(4-chlorophenyl)-2,3,9-trimethyl-6H-thieno[2,3-e][1,2,4]triazolo[3,4-c][1,2,4]triazepin-6-yl)methyl)pyridin-2-yl)methanol]
17 | 100 | 1.26 | Cc1sc2c(c1C)C(c1ccc(Cl)cc1)=NN(Cc1cccnc1C(F)(F)F)c1nnc(C)n1-2 [Example 78, 4-(4-chlorophenyl)-2,3,9-trimethyl-6-((2-(trifluoromethyl)pyridin-3-yl)methyl)-6H-thieno[2,3-e][1,2,4]triazolo[3,4-c][1,2,4]triazepine]
18 | 101 | 0.265 | Cc1sc2c(c1C)C(c1ccccc1)=NN(Cc1ccccc1)c1nnc(C)n1-2 [Example 29, 6-benzyl-2,3,9-trimethyl-4-phenyl-6H-thieno[2,3-e][1,2,4]triazolo[3,4-c][1,2,4]triazepine]
19 |  | 4.02 | Cc1nnc2n1-c1scc(CCO)c1C(c1ccc(N)cc1)=NN2Cc1cccnc1 [Example 108, 2-(4-(4-aminophenyl)-9-methyl-6-(pyridin-3-ylmethyl)-6H-thieno[2,3-e][1,2,4]triazolo[3,4-c][1,2,4]triazepin-3-yl)ethane-1-ol]
20 |  | 3.94 | Cc1sc2c(c1C)C(c1ccc(N)cc1)=NN(Cc1ccc(O)nc1)c1nnc(C)n1-2 [Example 104]
21 |  | 4.83 | Cc1sc2c(c1C)C(c1ccc(N)cc1)=NN(Cc1cccnc1)c1nnc(CO)n1-2 [Example 105, (4-(4-aminophenyl)-2,3-dimethyl-6-(pyridin-3-ylmethyl)-6H-thieno[2,3-e][1,2,4]triazolo[3,4-c][1,2,4]triazepin-9-yl)methanol]
22 |  | 1.84 | Cc1c(CO)sc2c1C(c1ccc(N)cc1)=NN(Cc1cccnc1)c1nnc(C)n1-2 [Example 106, (4-(4-aminophenyl)-3,9-dimethyl-6-(pyridin-3-ylmethyl)-6H-thieno[2,3-e][1,2,4]triazolo[3,4-c][1,2,4]triazepin-2-yl)methanol]
23 |  | 1.64 | CC(=O)Nc1ccc(C2=NN(Cc3cncc(O)c3)c3nnc(C)n3-c3sc(C)c(C)c32)cc1 [Example 99, N-(4-(6-((5-hydroxypyridin-3-yl)methyl)-2,3,9-trimethyl-6H-thieno[2,3-e][1,2,4]triazolo[3,4-c][1,2,4]triazepin-4-yl)phenyl)acetamide]
